Assay [1] relates to angiogenesis/capillary network formation. Conditions: in vitro; Alliegro and Glaser 1991; cited from earlier work.
For assay [2], the system named is tumor metastasis. Conditions: in vivo; Kellen et al. 1988; cited from earlier work.
The target in assay [3] is T1, urokinase enzyme Abbokinase (Homo sapiens, UniProt P00749).
T1 construct: purchased Abbott Laboratories, Abbott Park, Ill
The experiment in a line: Determination of urokinase inhibition (Abbokinase, chromogenic substrate S-2444). The class given is biochemical. Conditions: Inhibitory potency against urokinase; substrate S-2444 at 200 μM, enzyme 2-3 nM, pH 7.4, 405 nm; read-out: IC50.
Protocol: Several vials were reconstituted as directed on the vial, aliquoted and stored frozen. The enzyme was further diluted in assay buffer and 10 μl was used in the assay. Enzyme concentration in the assay was 2-3 nM. […] The Spectromax® calculated the reaction rates which were used to calculate percent inhibition of the compounds of this invention versus the reaction rate of the enzyme in the absence of any inhibitor. The Ki's of the inhibitors were calculated from the percent inhibition and previously established Km.

As for `N=C(N)NC(=O)c1nc(Cl)c(N)nc1N` [Amiloride], the “inhibition of angiogenesis/capillary network formation” value in assay [1] is on record as “angiogenesis/capillary network formation in vitro”. Moreover, the “inhibition of tumor metastasis” value in assay [2] was “inhibit tumor metastasis in vivo”.

One may read the IC50 as the concentration needed to halve the response being measured. Take “N-(6-aminoiminomethyl-2-naphthalenyl)-N′-phenylurea [Example 40]”: the IC50 in assay [3] amounted to 310 nM.

In the case of “N-[3-(methyl)phenyl]-6-aminoiminomethyl-2-naphthalenecarboxamide [Example 48]”, in assay [3], the IC50 was found to be 1300 nM.

For the compound “N-[4-(Aminomethyl)phenyl]-6-aminoiminomethyl-2-naphthalenecarboxamide [Example 8]”, the IC50 in assay [3] came to 100 nM.

As for “N-[4-(aminocarbonyl)phenyl]-6-(aminoiminomethyl)-2-naphthalenecarboxamide [Example 184]”, in assay [3], the 50% inhibitory concentration (IC50) came to 375 nM.

Turning to “N-[6-(Aminoiminomethyl)-2-naphthalenyl]-4-(aminomethyl)benzamide [Example 77]”, in assay [3], the half-inhibitory concentration (IC50) is 230 nM.

Consider “N-[6-(aminoiminomethyl)-2-naphthalenyl)benzamide [Example 136]”, for which, in assay [3], the half-maximal inhibitory concentration (IC50) was determined as 1670 nM.

With “N-[6-(aminoiminomethyl)-2-naphthalenyl]-N′-(4-aminophenyl)urea [Example 138]”, the half-inhibitory concentration (IC50) in assay [3] came to 460 nM.

On to “N-[7-(aminoiminomethyl )-1-naphthalenyl]urea [Example 161]”, for which the half-inhibitory concentration (IC50) in assay [3] is 1590 nM.

In the case of “N-[7-(aminoiminomethyl)-1-naphthalenyl)-2-methoxyacetamide [Example 160]”, in assay [3], the 50% inhibitory concentration (IC50) came to 2620 nM.

As to “N-[7-(aminoiminomethyl)-1-naphthalenyl)acetamide [Example 15]”, in assay [3], the IC50 worked out at 2500 nM.

As for “N-[7-(aminoiminomethyl)-1-naphthalenyl)propanamide [Example 159]”, the IC50 in assay [3] turned out to be 2230 nM.

In the case of “N-[7-(aminoiminomethyl)-1-naphthalenyl]-1,3-benzodioxole-5-carboxamide [Example 19]”, the half-maximal inhibitory concentration (IC50) in assay [3] was found to be 2210 nM.

Regarding “N-[7-(aminoiminomethyl)-1-naphthalenyl]-2-(phenylmethoxy)acetamide [Example 18]”, in assay [3], the 50% inhibitory concentration (IC50) worked out at 420 nM.

In the case of “N-[7-(aminoiminomethyl)-1-naphthalenyl]-2-hydroxyacetamide [Example 162]”, the 50% inhibitory concentration (IC50) in assay [3] amounted to 1330 nM.

In the case of “N-[7-(aminoiminomethyl)-1-naphthalenyl]-N′-methylurea [Example 157]”, the IC50 in assay [3] was 3120 nM.

In the case of “N-[7-(aminoiminomethyl)-1-naphthalenyl]benzenemethanesulfonamide [Example 20]”, in assay [3], the half-maximal inhibitory concentration (IC50) turned out to be 803 nM.

“N-phenyl-6-aminoiminomethyl-2-naphthalenecarboxamide [Example 55]”: the 50% inhibitory concentration (IC50) in assay [3] was 900 nM.

Consider “[(7-aminoiminomethyl-2-methoxy-1-naphthalenyl)oxy]acetic acid [Example 7]”, for which, in assay [3], the IC50 is 3500 nM.

As for “ethyl [7-(aminoiminomethyl)-1-naphthalenyl)carbamate [Example 158]”, the IC50 in assay [3] was determined as 90 nM.

On to “methyl 2-[4-[[[6-(aminoiminomethyl)-2-naphthalenyl]carbonyl]amino]phenoxy]acetate [Example 95]”, for which, in assay [3], the IC50 is 1730 nM.

Regarding “methyl 2-[[6-(aminoiminomethyl)-2-naphthalenyl]oxy]acetate [Example 185]”, in assay [3], the 50% inhibitory concentration (IC50) was found to be 3190 nM.

Turning to “methyl 4-[[[7-(aminoiminomethyl)-1-(2-pyrimidinylamino)-2-naphthalenyl]oxy]methyl]benzoate [Example 133]”, the IC50 in assay [3] amounted to 44 nM.

On to “methyl [7-(aminoiminomethyl)-2-methoxy-I-naphthalenyl)carbamate [Example 99]”, for which, in assay [3], the IC50 is 3020 nM.

With “propyl [7-(aminoiminomethyl)-1-naphthalenyl]carbamate [Example 156]”, in assay [3], the half-inhibitory concentration (IC50) amounted to 180 nM.

The record behind these values is patent US20010049374A1 (priority 1997, published 2001).
